The values that follow come from US20240246964A1 (Arbutus Biopharma Corporation, priority 2021, published 2024).

The target of experiment [1] is PD-L1 His protein / PD-1 Fc protein (Homo sapiens (Human), UniProt Q9NZQ7). As to the kind of experiment: HTRF Assay (PD-1/PD-L1 interaction). Format: binding. Conditions: PD-L1 His 6 nM, PD-1 Fc 6 nM.
Experiment [2] addresses human PD-L1 (Homo sapiens (Human), UniProt Q9NZQ7). As to the kind of experiment: T cell activation luciferase reporter cell culture system (T Cell Activation Assay). Format: cell-based. The following applies: luciferase reporter assay; PD-L1 aAPC/CHO-K1 cells with PD-1 effector Jurkat T cells.

PD-L1 His protein / PD-1 Fc protein, sequence (Q9NZQ7 19-238): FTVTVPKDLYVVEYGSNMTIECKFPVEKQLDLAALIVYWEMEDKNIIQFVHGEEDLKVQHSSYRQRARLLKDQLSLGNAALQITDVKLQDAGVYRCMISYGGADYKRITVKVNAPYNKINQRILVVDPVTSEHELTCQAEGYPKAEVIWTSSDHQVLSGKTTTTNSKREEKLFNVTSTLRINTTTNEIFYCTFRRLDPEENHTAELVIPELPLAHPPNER
human PD-L1, sequence (Q9NZQ7 19-290): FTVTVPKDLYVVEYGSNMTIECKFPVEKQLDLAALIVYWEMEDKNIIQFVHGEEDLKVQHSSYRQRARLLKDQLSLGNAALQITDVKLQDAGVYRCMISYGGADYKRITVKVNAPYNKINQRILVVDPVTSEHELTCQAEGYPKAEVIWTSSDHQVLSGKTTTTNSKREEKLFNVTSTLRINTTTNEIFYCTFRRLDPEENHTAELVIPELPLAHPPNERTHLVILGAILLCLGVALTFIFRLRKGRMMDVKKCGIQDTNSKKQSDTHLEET

What is called IC50 is the midpoint of a concentration-inhibition curve. Low values mean greater potency, high ones weaker potency. The EC50 is the concentration needed to bring the measured effect to its halfway point. A higher EC50 goes with a need for much substance. The compound `COc1nc(-c2cccc(-c3nccc(-c4ccc(CN5CC6(CNC(=O)C6)C5)c(OC)n4)c3Cl)c2Cl)ccc1CN1CC2(CNC(=O)C2)C1` [Compound 573, 2-((3′-Chloro-2′-(2-chloro-3-(6-methoxy-5-((7-oxo-2,6-diazaspiro[3.4]octan-2-yl)methyl)pyridin-2-yl)phenyl)-6-methoxy-[2,4′-bipyridin]-5-yl)methyl)-2,6-diazaspiro[3.4]octan-7-one] had an IC50 in experiment [1] of 0.17 nM. The same compound returned an EC50 in experiment [2] of 14.4 nM.

Turning to `COc1nc(-c2cccc(-c3nccc(-c4ccc(CNC5CCOCC5)c(OC)n4)c3Cl)c2Cl)ccc1CNC1CCOCC1` [Compound 574, N-((3′-Chloro-2′-(2-chloro-3-(6-methoxy-5-(((tetrahydro-2H-pyran-4-yl)amino)methyl)pyridin-2-yl)phenyl)-6-methoxy-[2,4′-bipyridin]-5-yl)methyl)tetrahydro-2H-pyran-4-amine], in experiment [1], the midpoint of inhibition, the IC50, lay at 0.04 nM. Besides, in experiment [2], the midpoint of the response, the EC50, lay at 14 nM.

Turning to `COc1nc(-c2cccc(-c3nccc(-c4ccc(CNC[C@@H]5CCC(=O)N5)c(OC)n4)c3Cl)c2Cl)ccc1CNC[C@@H]1CCC(=O)N1` [Compound 575, (S)-5-((((3′-Chloro-2′-(2-chloro-3-(6-methoxy-5-(((((S)-5-oxopyrrolidin-2-yl)methyl)amino)methyl)pyridin-2-yl)phenyl)-6-methoxy-[2,4′-bipyridin]-5-yl)methyl)amino)methyl)pyrrolidin-2-one], inhibition in experiment [1] was half-maximal at 0.11 nM (IC50). In experiment [2], a half-maximal response (EC50) required 14.1 nM.

Regarding `COc1cc(-c2nccc(-c3cccc(-c4ccc5c(CNC6CCN(C(C)=O)CC6)cn(C)c5n4)c3Cl)c2Cl)ccc1CN1CC2(CNC(=O)C2)C1` [Compound 579, 2-(4-(4-(3-(3-(((1-Acetylpiperidin-4-yl)amino)methyl)-1-methyl-1H-pyrrolo[2,3-b]pyridin-6-yl)-2-chlorophenyl)-3-chloropyridin-2-yl)-2-methoxybenzyl)-2,6-diazaspiro[3.4]octan-7-one], the IC50 in experiment [1] was 0.3 nM. The EC50 in experiment [2] was 101 nM.

On to `COc1cc(-c2nccc(-c3cccc(-c4ccc5c(CN(C)C6CCN(C(C)=O)CC6)cn(C)c5n4)c3Cl)c2Cl)ccc1CNC1CCOCC1` [Compound 600, 1-(4-(((6-(2-Chloro-3-(3-chloro-2-(3-methoxy-4-(((tetrahydro-2H-pyran-4-yl)amino)methyl)phenyl)pyridin-4-yl)phenyl)-1-methyl-1H-pyrrolo[2,3-b]pyridin-3-yl)methyl)(methyl)amino)piperidin-1-yl)ethan-1-one], for which the IC50 in experiment [1] stood at 0.25 nM. Besides, the midpoint of the response in experiment [2], the EC50, lay at 32.6 nM.

Take `COc1cc(-c2nccc(-c3cccc(-c4ccc5c(CN(C)C6CCN(C(C)=O)CC6)cn(C)c5n4)c3Cl)c2Cl)ccc1CN1CC2(C1)CN(C(C)=O)C2` [Compound 601, 1-(4-(((6-(3-(2-(4-((6-Acetyl-2,6-diazaspiro[3.3]heptan-2-yl)methyl)-3-methoxyphenyl)-3-chloropyridin-4-yl)-2-chlorophenyl)-1-methyl-1H-pyrrolo[2,3-b]pyridin-3-yl)methyl)(methyl)amino)piperidin-1-yl)ethan-1-one]: in experiment [1], the IC50 came out at 0.23 nM. In experiment [2], this compound registered an EC50 of 110 nM.

`COc1cc(-c2nccc(-c3cccc(-c4ccc5c(CN(C)C6CCN(C(C)=O)CC6)cn(C)c5n4)c3Cl)c2Cl)ccc1CN1CC2(CNC(=O)C2)C1` [Compound 603, 2-(4-(4-(3-(3-(((1-Acetylpiperidin-4-yl)(methyl)amino)methyl)-1-methyl-1H-pyrrolo[2,3-b]pyridin-6-yl)-2-chlorophenyl)-3-chloropyridin-2-yl)-2-methoxybenzyl)-2,6-diazaspiro[3.4]octan-7-one] gave an IC50 in experiment [1] of 0.52 nM. In experiment [2], the EC50 came to 49.7 nM.

In experiment [1], `COc1cc(-c2nccc(-c3cccc(-c4ccc5c(CNC6CCOCC6)cn(C)c5n4)c3Cl)c2Cl)ccc1CN1CC2(CNC(=O)C2)C1` [Compound 605, 2-(4-(3-Chloro-4-(2-chloro-3-(1-methyl-3-(((tetrahydro-2H-pyran-4-yl)amino)methyl)-1H-pyrrolo[2,3-b]pyridin-6-yl)phenyl)pyridin-2-yl)-2-methoxybenzyl)-2,6-diazaspiro[3.4]octan-7-one] registered an IC50 of 0.34 nM. Also, the EC50 in experiment [2] turned out to be 636 nM.

In the case of `COc1cc(-c2nccc(-c3cccc(-c4ccc5c(CNC6CCOCC6)cn(C)c5n4)c3Cl)c2Cl)ccc1CNCCO` [Compound 606, 2-((4-(3-Chloro-4-(2-chloro-3-(1-methyl-3-(((tetrahydro-2H-pyran-4-yl)amino)methyl)-1H-pyrrolo[2,3-b]pyridin-6-yl)phenyl)pyridin-2-yl)-2-methoxybenzyl)amino)ethan-1-ol], in experiment [1], the IC50 came out at 0.12 nM. In experiment [2], this compound displayed an EC50 of 237 nM.

As to `COc1cc(-c2nccc(-c3cccc(-c4ccc5c(CNC6CCOCC6)cn(C)c5n4)c3Cl)c2Cl)ccc1CN1CC2(C1)CN(C(C)=O)C2` [Compound 609, 1-(6-(4-(3-Chloro-4-(2-chloro-3-(1-methyl-3-(((tetrahydro-2H-pyran-4-yl)amino)methyl)-1H-pyrrolo[2,3-b]pyridin-6-yl)phenyl)pyridin-2-yl)-2-methoxybenzyl)-2,6-diazaspiro[3.3]heptan-2-yl)ethan-1-one], it took 0.22 nM to reach half-maximal inhibition in experiment [1] (IC50). Besides, a half-maximal response in experiment [2] (EC50) required 10000 nM.

`COc1cc(-c2ccnc(-c3cccc(-c4ccc(CNC5CCN(C(C)=O)CC5)c(OC)n4)c3Cl)c2Cl)ccc1CNC1CCN(C(C)=O)CC1` [Compound 621, 1-(4-(((6-(3-(4-(4-(((1-Acetylpiperidin-4-yl)amino)methyl)-3-methoxyphenyl)-3-chloropyridin-2-yl)-2-chlorophenyl)-2-methoxypyridin-3-yl)methyl)amino)piperidin-1-yl)ethan-1-one] came in with an IC50 in experiment [1] of 1.54 nM. The compound further displayed an EC50 in experiment [2] of 303 nM.

As for `COc1nc(-c2cccc(-c3ccnc(-c4ccc(CNC5CCN(C(C)=O)CC5)c(OC)n4)c3Cl)c2Cl)ccc1CNC1CCN(C(C)=O)CC1` [Compound 627, 1-(4-(((6-(3-(5′-(((1-Acetylpiperidin-4-yl)amino)methyl)-3-chloro-6′-methoxy-[2,2′-bipyridin]-4-yl)-2-chlorophenyl)-2-methoxypyridin-3-yl)methyl)amino)piperidin-1-yl)ethan-1-one], the IC50 in experiment [1] was found to be 1.96 nM. Moreover, in experiment [2], the midpoint of the response, the EC50, lay at 43.4 nM.

Consider `COc1nc(-c2cccc(-c3ccnc(-c4ccc(CN5CC6(CNC(=O)C6)C5)c(OC)n4)c3Cl)c2Cl)ccc1CN1CC2(CNC(=O)C2)C1` [Compound 628, 2-((3′-Chloro-4′-(2-chloro-3-(6-methoxy-5-((7-oxo-2,6-diazaspiro[3.4]octan-2-yl)methyl)pyridin-2-yl)phenyl)-6-methoxy-[2,2′-bipyridin]-5-yl)methyl)-2,6-diazaspiro[3.4]octan-7-one], for which the IC50 in experiment [1] is 0.28 nM. In experiment [2], this compound gave an EC50 of 27.1 nM.

The compound `COc1nc(-c2cccc(-c3ccnc(-c4ccc(CNC5CCOCC5)c(OC)n4)c3Cl)c2Cl)ccc1CNC1CCOCC1` [Compound 629, N-((6-(2-Chloro-3-(3-chloro-6′-methoxy-5′-(((tetrahydro-2H-pyran-4-yl)amino)methyl)-[2,2′-bipyridin]-4-yl)phenyl)-2-methoxypyridin-3-yl)methyl)tetrahydro-2H-pyran-4-amine] displayed an IC50 in experiment [1] of 0.66 nM. In addition, in experiment [2], the EC50 is 114 nM.

Regarding `COc1nc(-c2cccc(-c3ccnc(-c4ccc(CNC[C@@H]5CCC(=O)N5)c(OC)n4)c3Cl)c2Cl)ccc1CNC[C@@H]1CCC(=O)N1` [Compound 630, (S)-5-((((6-(2-Chloro-3-(3-chloro-6′-methoxy-5′-(((((S)-5-oxopyrrolidin-2-yl)methyl)amino)methyl)-[2,2′-bipyridin]-4-yl)phenyl)-2-methoxypyridin-3-yl)methyl)amino)methyl)pyrrolidin-2-one], half-maximal inhibition in experiment [1] (IC50) was put at 0.17 nM. In experiment [2], the EC50 turned out to be 49.6 nM.

As to `COc1cc(-c2nccc(-c3cccc(-c4ccc5c(CN(C)C6CCOCC6)cn(C)c5n4)c3Cl)c2Cl)ccc1CNC1CCOCC1` [Compound 635, N-((6-(2-Chloro-3-(3-chloro-2-(3-methoxy-4-(((tetrahydro-2H-pyran-4-yl)amino)methyl)phenyl)pyridin-4-yl)phenyl)-1-methyl-1H-pyrrolo[2,3-b]pyridin-3-yl)methyl)-N-methyltetrahydro-2H-pyran-4-amine], the midpoint of inhibition in experiment [1], the IC50, lay at 0.19 nM. Moreover, the half-maximal effective concentration (EC50) in experiment [2] came to 237 nM.

The compound `COc1nc(-c2cccc(-c3cncc(-c4ccc(CNC5CCN(C(C)=O)CC5)c(OC)n4)c3Cl)c2Cl)ccc1CNC1CCN(C(C)=O)CC1` [Compound 639, 1-(4-(((6-(3-(5-(((1-acetylpiperidin-4-yl)amino)methyl)-4′-chloro-6-methoxy-[2,3′-bipyridin]-5′-yl)-2-chlorophenyl)-2-methoxypyridin-3-yl)methyl)amino)piperidin-1-yl)ethan-1-one] registered an IC50 in experiment [1] of 0.19 nM. In experiment [2], this compound returned an EC50 of 23 nM.

`COc1nc(-c2cccc(-c3cncc(-c4ccc(CN5CC6(CNC(=O)C6)C5)c(OC)n4)c3Cl)c2Cl)ccc1CN1CC2(CNC(=O)C2)C1` [Compound 640, 2-((4′-Chloro-5′-(2-chloro-3-(6-methoxy-5-((7-oxo-2,6-diazaspiro[3.4]octan-2-yl)methyl)pyridin-2-yl)phenyl)-6-methoxy-[2,3′-bipyridin]-5-yl)methyl)-2,6-diazaspiro[3.4]octan-7-one] yielded an IC50 in experiment [1] of 0.22 nM. The EC50 in experiment [2] worked out at 26.2 nM.

In turn, `COc1cc(-c2cncc(-c3cccc(-c4ccc(CNC5CCN(C(C)=O)CC5)c(OC)n4)c3Cl)c2Cl)ccc1CNC1CCN(C(C)=O)CC1` [Compound 641, 1-(4-(((6-(3-(5-(4-(((1-Acetylpiperidin-4-yl)amino)methyl)-3-methoxyphenyl)-4-chloropyridin-3-yl)-2-chlorophenyl)-2-methoxypyridin-3-yl)methyl)amino)piperidin-1-yl)ethan-1-one] registered a concentration for half-maximal inhibition (IC50) in experiment [1] of 0.09 nM. The EC50 in experiment [2] is 107 nM.
